In patent US11382347B2, “Natural cooling formulations” (WM. WRIGLEY JR. COMPANY, priority 2015, dated 2022):

Test: Sensory panel screening of natural coolants versus menthol in sugar solution (Example 1)
Assay type: in vivo, human
Settings: 100 ppm in 5% sugar solution, 10 mL held 10 s, panel N=6; for Cooling Relative to 100 ppm Menthol: 9-point scale, menthol fixed as 5.0
Description: 100 ppm of naturally sourced menthyl lactate, menthyl succinate, and isopulegol were screened in 5% sugar solution for cooling and bitterness properties relative to 100 ppm menthol in 5% sucrose solution.
10 mL of each sample was orally evaluated by a panel (N=6) for 10 seconds, then expectorated. Cooling strength, flavor strength, and bitterness or off-taste was evaluated on a 9-point scale in comparison to 100 ppm menthol evaluated as a control, with 0 being the lowest and 9 being the highest measure on the scale. Subjects evaluated the coolant attributes at T0 (immediately after expectorating), 1, 2, 5 and 10 minute time points post expectoration.
Prior to the test, each subject calibrated their cooling and bitterness scale by performing the same evaluation on 10 mL of 100 ppm of L-menthol (prepared the same way as the natural coolants). The menthol solution was held in the mouth for 10 seconds as a calibration sample and the cooling strength and bitterness were fixed as 5.0 at the initial T0 time point.
Panelists were asked to rate the cooling and bitterness intensity of the compounds in solution, relative to the solution of 100 ppm of menthol, when tested in comparative screenings. The ratings are summarized in Table 1, showing the cooling and bitterness of the coolants compared to menthol.

Structure (SMILES) | Bitterness Relative to 100 ppm Menthol | Cooling Relative to 100 ppm Menthol
CC1CCC(C(C)C)C(O)C1 (centres unmarked) [Menthol (Control), menthol, reference compound] | 1.0 | 1.0
C=C(C)C1CCC(C)CC1O (centres unmarked) [Natural Isopulegol, isopulegol] | 0.8 | 0.7
CC1CCC(C(C)C)C(OC(=O)C(C)O)C1 (centres unmarked) [Natural Menthyl Lactate, menthyl lactate] | 1.7 | 1.1
CC1CCC(C(C)C)C(OC(=O)CCC(=O)O)C1 (centres unmarked) [Natural Menthyl Succinate, mono-menthyl succinate] | 0.8 | 0.6
